Experimental data: patent US8765786B2, “1-substituted indazole derivative” (Dainippon Sumitomo Pharma Co., Ltd., priority 2012, dated 2014)

What was measured:
[1] = target: T1, hERG (human ether-a-go-go) potassium current (Homo sapiens, UniProt Q12809); assay: hERG inhibition test (whole-cell patch clamp, QPatch HT, CHO cells); format: cell-based; settings: room temperature
T1 construct: expressed in transfected cells; host or cells: CHO cells
Method: The hERG (human ether-a-go-go) potassium current in CHO cells which stably express hERG gene was recorded by whole-cell patch clamping technique using an automated patch clamp system, QPatch HT (Sophion Bioscience A/S). Inducing the hERG current, the membrane potential was held at −80 mV in voltage clamp mode, and then depolarized to −50 mV for 20 msec and then +20 mV for 5 sec. Then, the membrane potential was repolarized to −50 mV for 5 sec and the tail current amplitude was measured. The stimulation was given at a frequency of every 15 seconds, and the experiment was carried out at room temperature (22±2° C.) The compound was cumulatively administered to each cell in 4 concentrations, wherein the administration was done over 5 minutes in each concentration. The inhibition percentage of the inhibited current was calculated by comparing the current intensities before and after the compound was given in each concentration. According to Hill equation, each 50% inhibitory concentration was calculated (IC50 [μmol/L]). The test solutions used herein were as follows: extracellular solution (mmol/L): 2 CaCl2, 1 MgCl2, 10 HEPES, 4 KCl, 145 NaCl, 10 glucose,
intracellular solution (mmol/L): […], 1.8 MgCl2, 10 HEPES, 31 KOH, 10 EGTA, 120 KCl, 4 ATP

Rat PK test = format: in vivo; settings: plasma, rats, intravenous and oral administration
Method: The present compound was administered intravenously in saline solution or orally in methylcellulose solution to 7 weeks old rats, and their blood was collected according to the following schedule:
(intravenous administration) 5 minutes, 15 minutes, 30 minutes, 1 hour, 2 hours, 4 hours, 6 hours and 24 hours after the administration
(oral administration) 15 minutes, 30 minutes, 1 hour, 2 hours, 4 hours, 6 hours and 24 hours after the administration
The collected blood was centrifuged at 3000 rpm for 10 minutes in a refrigerated centrifuge set at 4° C. The obtained plasma was measured with a HPLC to give a time curve of plasma level, thereby calculating the pharmacokinetic parameters.

[2] = Measurement of protein binding ratio (equilibrium dialysis); format: in vitro ADME, human
[3] = Measurement of brain penetration; format: in vivo; settings: LC-MS/MS of plasma and brain homogenates; read-out: concentration ratio of the brain to the plasma
Excerpt: The plasma and brain homogenates were deproteinized with methanol and then centrifuged. The supernatant was filtered, and the obtained sample was quantified with LC-MS/MS to calculate the concentration of the plasma and brain.

Slc: ddY mice = assay: Novel object recognition test in mice (mORT); format: in vivo
Method: Slc: ddY mice (25 g to 30 g, male, Japan SLC) can be used in the novel object recognition test wherein the interval between the 1st trial (training) and the 2nd trial (test) correlates with the memory loss for the objects used in the 1st trial, and a significant memory-loss is observed when the 2nd trial is performed 24 hours after the 1st trial. According to the test mechanism, the present compounds were administered prior to the 1st trial, and the enhancement effect on memory in the 2nd trial was evaluated.

Slc: Wistar rats = assay: Y-shaped maze test in rats, scopolamine-induced cognitive impairment; format: in vivo; settings: 0.6 mg/kg scopolamine HBr s.c.
Method: In Y-maze test, 0.6 mg/kg scopolamine HBr (cat#S0929, Sigma Aldrich, Japan) can be subcutaneously administered to Slc: Wistar rats (280 g to 300 g, male, Japan SLC) to cause cognitive impairment and decrease the percentage of alternation behavior. According to the test mechanism, the present compounds were treated prior to the administration of scopolamine, and the improvement effect on cognitive impairment was evaluated.

T1 sequence (Q12809 whole entry): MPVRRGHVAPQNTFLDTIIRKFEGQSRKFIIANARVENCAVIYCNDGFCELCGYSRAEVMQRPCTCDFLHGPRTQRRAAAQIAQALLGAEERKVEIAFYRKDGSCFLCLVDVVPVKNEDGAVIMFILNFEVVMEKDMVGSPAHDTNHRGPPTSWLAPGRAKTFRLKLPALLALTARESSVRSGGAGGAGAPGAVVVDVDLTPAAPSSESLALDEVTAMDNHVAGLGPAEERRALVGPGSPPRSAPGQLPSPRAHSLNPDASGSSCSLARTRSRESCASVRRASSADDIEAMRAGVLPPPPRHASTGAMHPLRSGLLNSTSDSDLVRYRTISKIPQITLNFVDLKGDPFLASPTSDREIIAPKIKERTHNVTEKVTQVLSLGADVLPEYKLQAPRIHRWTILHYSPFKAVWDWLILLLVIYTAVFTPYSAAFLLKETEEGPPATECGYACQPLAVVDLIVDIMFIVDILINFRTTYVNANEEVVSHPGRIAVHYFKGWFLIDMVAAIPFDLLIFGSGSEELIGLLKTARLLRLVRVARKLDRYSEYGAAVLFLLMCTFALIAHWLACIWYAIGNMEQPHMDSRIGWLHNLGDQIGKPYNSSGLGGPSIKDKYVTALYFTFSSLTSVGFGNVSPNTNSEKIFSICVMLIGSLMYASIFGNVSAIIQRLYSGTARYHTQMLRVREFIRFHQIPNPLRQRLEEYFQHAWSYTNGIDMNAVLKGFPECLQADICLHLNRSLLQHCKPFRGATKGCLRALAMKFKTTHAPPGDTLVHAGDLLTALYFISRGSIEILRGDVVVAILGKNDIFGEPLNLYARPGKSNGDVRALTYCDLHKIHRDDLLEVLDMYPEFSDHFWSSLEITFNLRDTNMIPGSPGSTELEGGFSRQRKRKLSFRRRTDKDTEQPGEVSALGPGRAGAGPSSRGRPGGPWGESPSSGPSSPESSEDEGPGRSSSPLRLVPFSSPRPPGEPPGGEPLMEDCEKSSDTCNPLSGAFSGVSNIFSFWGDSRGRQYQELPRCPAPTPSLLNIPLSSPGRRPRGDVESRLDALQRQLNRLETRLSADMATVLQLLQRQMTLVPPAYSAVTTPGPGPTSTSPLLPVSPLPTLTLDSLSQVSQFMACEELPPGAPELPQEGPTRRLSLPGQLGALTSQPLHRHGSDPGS

bioavailability (Rat PK test): 41%
protein binding ratio in the brain ([2]; brain): 91.9%
protein binding ratio in the plasma ([2]; plasma): 84.7%
Kp [3]: 1.27
SMILES: CO[C@H]1CC[C@H](NC(=O)N2CCC(n3ncc4cc(C)ccc43)CC2)CC1 [Example 1, N-(trans-4-methoxycyclohexyl)-4-(5-methyl-1H-indazol-1-yl)piperidine-1-carboxamide]
IC50 [1]: 84.3 µM
minimum effective dose (Slc: ddY mice; administered prior to 1st trial, 2nd trial 24 hours later): 0.1 mg/kg
efficacy at higher doses (Slc: ddY mice; dose of 0.3 mg/kg, 1.0 mg/kg or 3 mg/kg): efficacy did not decrease
dose from which cognitive function was significantly improved (Slc: Wistar rats): 0.3 mg/kg
